Data on four compounds can be found in patent publication US7279470B2 (priority 2001, dated 2007).

The target in assay [1] is T1, Hormone-sensitive lipase (HSL) (Homo sapiens, UniProt Q05469).
T1 sequence (Q05469 1-1076): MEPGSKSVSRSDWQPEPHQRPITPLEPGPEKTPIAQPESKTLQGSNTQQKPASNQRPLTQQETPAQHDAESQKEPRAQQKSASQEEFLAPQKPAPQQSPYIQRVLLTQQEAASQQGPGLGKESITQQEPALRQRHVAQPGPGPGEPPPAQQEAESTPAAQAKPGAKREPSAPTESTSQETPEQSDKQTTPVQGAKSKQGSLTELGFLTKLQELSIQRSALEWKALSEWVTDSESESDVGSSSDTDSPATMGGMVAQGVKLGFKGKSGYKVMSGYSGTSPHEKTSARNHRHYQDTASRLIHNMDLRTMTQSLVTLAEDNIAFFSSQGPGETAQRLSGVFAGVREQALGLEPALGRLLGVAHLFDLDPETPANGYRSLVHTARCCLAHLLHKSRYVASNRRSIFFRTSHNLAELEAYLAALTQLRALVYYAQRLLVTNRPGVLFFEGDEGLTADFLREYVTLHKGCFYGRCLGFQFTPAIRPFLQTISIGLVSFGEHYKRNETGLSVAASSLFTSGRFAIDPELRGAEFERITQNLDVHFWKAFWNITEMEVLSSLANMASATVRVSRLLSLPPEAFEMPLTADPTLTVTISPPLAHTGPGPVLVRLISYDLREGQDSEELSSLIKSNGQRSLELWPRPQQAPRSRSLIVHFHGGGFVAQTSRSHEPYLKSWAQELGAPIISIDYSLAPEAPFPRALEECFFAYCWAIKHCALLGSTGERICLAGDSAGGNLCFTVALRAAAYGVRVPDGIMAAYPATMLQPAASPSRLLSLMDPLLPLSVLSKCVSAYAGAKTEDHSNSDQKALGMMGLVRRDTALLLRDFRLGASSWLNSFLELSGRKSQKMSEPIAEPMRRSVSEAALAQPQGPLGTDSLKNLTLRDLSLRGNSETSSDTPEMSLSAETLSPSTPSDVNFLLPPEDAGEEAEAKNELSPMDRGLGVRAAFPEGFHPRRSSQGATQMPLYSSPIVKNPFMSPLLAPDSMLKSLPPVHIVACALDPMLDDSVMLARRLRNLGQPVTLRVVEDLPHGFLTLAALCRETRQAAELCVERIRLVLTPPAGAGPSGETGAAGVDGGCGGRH
Format: biochemical. The note with it: 10 μM sample concentration; percent activity relative to a non-inhibited sample (no compound); 30 min preincubation 25° C., 120 min at 37° C. The procedure:
Materials. The Hormone-sensitive lipase was provided by Dr. Cecilia Holm, from Lund University Sweden or produced and purified by Novo Nordisk (NN) using the reagents and protocols used by Dr. Holm. […] All other reagents are of commercial grade and obtained from various commercial sources.
BSA is added as product receptor. The transfer of the fluorochrome from the lipid phase to the water (BSA) phase changes the fluorescent properties of the fluorochrome. The changes can be monitored on a fluorimeter with an excitation wavelength of 450 nm and an emission wavelength of 545 nm.
Compound and HSL (20 μL compound, 10 μL enzyme and 70 μL PED-BSA buffer) is preincubated for 30 min at 25° C. before addition of substrate (100 μL). Amount of formed product is measured after 120 min incubation at 37° C.

Assay [2] deals with T1, Hormone-sensitive lipase (HSL). It is filed as biochemical. The note with it: 10 μM concentration; percent activity relative to an un-inhibited sample (no compound); 3H-Triolein substrate, 25° C. The text has this:
Materials. The Hormone-sensitive lipase was provided by Dr. Cecilia Holm, from Lund University Sweden or produced and purified by Novo Nordisk (NN) using the reagents and protocols used by Dr. Holm. The substrates used are: ^3H-labeled triolein (TO) from Amersham, Buckinghamshire, U.K. cat No. TRA191; 5-20 Ci/mmol dissolved in toluene, triolein (Sigma, Cat. No. T-1740), fluorochrome-labeled triacylglyceride (cis-octadec-9-enoic acid 2-[12-(7-nitrobenzo[12,5]oxadiazol-4-ylamino)dodecanoyloxy]-1-cis-octadec-9-enoyloxymethyl-ethyl ester) prepared by Novo Nordisk (NN) by conventional methods, and 1,3-(di[^3H]-stearin), 2-(PEG-Biotin)glycerol prepared in collaboration with Amersham Pharmacia Biotech, UK and described in WO 01/073442. Phosphatidyl choline (PC) and phosphatidyl inositol (PI) are from Sigma (St Luis MO cat. Nos. P-3556 and P-5954 respectively). All other reagents are of commercial grade and obtained from various commercial sources.
3180.2: Assay for determination of percent inhibition by compound at 10 μM concentration. A lipid emulsion with ^3H-Triolein and phospholipid is used as substrate with a standard cencentration of highly purified HSL. BSA is added as product receptor. The substrate is prepared as follows: […]

With `CN(C(=O)Oc1ccc(OC(F)(F)C(F)(F)F)cc1)c1ccccc1` [Example 20], in assay [1], the “Test 3190.1 HSL_FL % ACTIVITY All” value is 51%.
Same read-out and setting: for `O=C(Oc1ccc(Oc2ccc3c(C(F)(F)F)cc(C(F)(F)F)nc3n2)cc1)N1CCOCC1` [Example 90, Morpholine-4-carboxylic acid 4-(5,7-bis-trifluoromethyl-[1,8]naphthypyridin-2-yloxy)-phenyl ester] the value was 24%.
On to `Cc1c(Cc2ccccc2)c(=O)oc2cc(OC(=O)N3CCOCC3)ccc12` [Example 92], for which, in assay [2], the “Test 3180.2 HSL % ACTIVITY All” value is listed as 62%.
The same measure, in the same setting: next, “N-Methyl-N-phenethyl-5-ethyl-3-(4-chlorophenyl)-[1,2,4]triazole-1-carboxamide [Example 119]”: 10%.
